Here are results for 4 compounds from paper PMC3130785, “Small Compound 6-O-Angeloylplenolin Induces Mitotic Arrest and Exhibits Therapeutic Potentials in Multiple Myeloma” (PLoS ONE, 2011).

Assay [1] deals with pERK1/2. Description: Western blotting, 6-OAP/BOR. Format: cell-based, human. To be noted: MM.1S; BOR 3 nM for 12 to 24 h with 6-OAP 5 µM. On the procedure:
Cell pellets were lysed in RIPA buffer containing 50 mM Tris pH 8.0, 150 mM NaCl, 0.1% SDS, 0.5% deoxycholate, 1% NP-40, 1 mM DTT, 1 mM NaF, 1 mM sodium vanadate, and protease inhibitors cocktail (Sigma). For immunoprecipitations, cells were lysed on ice for 15 minutes in RIPA buffer. Lysates were centrifuged. The supernatant was incubated with indicated antibodies overnight, after which protein A/G Plus beads (Santa Cruz Biotechnology) were added and incubated for 3 h. The beads were washed 4 times in RIPA buffer. Then the beads were resuspended in 1× sample buffer and boiled for 3 min. Protein extracts were quantitated and loaded on 8% to 12% sodium dodecyl sulfate polyacrylamide gel, electrophoresed, and transferred to a nitrocellulose membrane (Whatman). The membrane was incubated with primary antibody, washed, and incubated with horseradish peroxidase (HRP)–conjugated secondary antibody (Pierce). Detection was performed by using a chemiluminescent western detection kit (Cell Signaling). […]
A general note: In western blotting, separated proteins are transferred to a membrane and probed.

In assay [2] the test system is Bacillus subtilis. On the set-up: method as in PMID 9461679, PMID 8657743, PMID 12521264. To be noted: cited from earlier work.
Assay [3] relates to Staphylococcus aureus. Further details: method as in PMID 9461679, PMID 8657743, PMID 12521264. To be noted: cited from earlier work.
For assay [4], the system named is MM.1R cells. Put plainly: MTT assay, Dex with or without 6-OAP. Format: cell-based, human. To be noted: Dex 1 to 2 µM alone, 48 h, MTT. On the procedure: U266, RPMI 8226 cells (1×10^4), primary CD138+ cells, PBMCs (5×10^4), and BMSCs (1×10^4) were cultured in 96-well dishes and incubated without or with 6-OAP at indicated concentration for 48 h. MM.1S and MM.1R cells (2×10^4) were seeded into 96-well dishes and pre-cultured for 24 h, then treated with 6-OAP for 48 h. Cell proliferation was determined by MTT assay. Cell viability was estimated by trypan blue dye exclusion.
Figure 4 6-OAP enhances cytotoxicity of Dox, Dex and BOR to MM cells. (A through C) MM.1S cells were treated for 48 h with Dox (A), Dex (B) or BOR (C) in the presence or absence of 6-OAP at 5 µM. MTT assay was used to test the proliferation of MM.1S cells. (D) MM.1R cells were treated for 48 h with Dex in the presence or absence of 6-OAP at 7.5 µM. MTT assay was used to test the proliferation of MM.1R cells. *p<.001,** p<.05. (E) MM.1S cells were cultured with control media (con), 6-OAP (O, 5 µM), BOR (B, 3 nM), or 6-OAP (5 µM) plus BOR (3 nM) (OB) for indicated time points. Cells were then lysed and subjected to Western blotting using indicated antibodies. CF, cleavage fragment.
In general terms: Tetrazolium assays rely on reduction of a dye to a coloured formazan, in cell work by metabolically active cells.

`CC(C)C[C@H](NC(=O)[C@H](Cc1ccccc1)NC(=O)c1cnccn1)B(O)O` [BOR, bortezomib, reference compound]: in assay [1], the “6-OAP-induced pERK1/2 upregulation” value is reported as “dramatically inhibited 6-OAP-induced pERK1/2 upregulation”. Consider `CC(C)C(=O)OC1C2C(CC(C)C3C=CC(=O)C31C)OC(=O)C2C` (stereo not drawn) [6-O-isobutyroylplenolin], for which the antibacterial activity entry in assay [2] and in assay [3] was “exhibit antibacterial activity” each time. On to `C[C@@H]1C[C@H]2[C@@H]3CCC4=CC(=O)C=C[C@]4(C)[C@@]3(F)[C@@H](O)C[C@]2(C)[C@@]1(O)C(=O)CO` [Dex, Dexamethasone, reference compound], for which the “inhibition of cell proliferation” value in assay [4] is on record as “slight inhibition rate”. For the compound `C=C(C)C(=O)OC1C2C(CC(C)C3C=CC(=O)C31C)OC(=O)C2C` (stereo not drawn) [6-O-methylacrylylplenolin], the antibacterial activity result in assay [2] and in assay [3] was “exhibit antibacterial activity” in each case.
